# Tests used:
# Assay type in all cases: cell-based
# soluble CD23 = test: Inhibition of release of soluble CD23 from CD23-transfected CHO cells (Procedure 1); conditions: CHO cells transfected with alpha form of CD23, 6 hours, ELISA of supernatant; read-out: IC50 (concentration which inhibits the release of soluble CD23 by 50% relative to the control culture)
# Description: The ability of test compounds to inhibit the release of soluble CD23 was investigated by use of the following procedure.
# Adherent Chinese Hamster Ovary cells which had been transfected with the alpha form of CD23 were grown in microtitre plates. Cells were grown to confluence in α-MEM medium with 10% foetal calf serum, 2 mM glutamine containing 800 micro g/ml G418. Medium was removed and the cells washed with sterile phosphate buffered saline. Test compounds were dissolved in dimethyl sulphoxide at a stock concentration of 20 mM, then diluted 1 in 200 with α-MEM containing 800 micro g/ml G418 (no foetal calf serum). […] of the diluted compounds were added to the adherent cells in triplicate wells. Appropriate control cultures were set up in triplicate. The plates were incubated for 6 hours at 37° C., 95% air/5% CO2 in a humidified incubator, then centrifuged at 200× g for 3 minutes. A specific ELISA for CD23, obtained from The Binding Site Limited, Institute of Research and Development, Birmingham England, was used to measure CD23 levels in the culture supernatants.
# [1] = system: Human peripheral blood mononuclear cells; test: Inhibition of formation of human IgE in vitro, peripheral blood mononuclear cells with IL4 (Procedure 3); conditions: 12 days, ELISA, IL4 alone 72.4, TCM 0.25
# Description: (§1) The ability of test compounds to inhibit the formation of human IgE in vitro was investigated using the following procedure:
# Human peripheral blood mononuclear cells were separated by centrifugation over Ficoll-Paque (Pharmacia). The cells were suspended in RPMI 1640 medium containing 10% foetal calf serum, 2 mM glutamine, 50 microM 2-mercaptoethanol and 50 micro g/ml gentamycin (TCM) at a concentration of 1.25×10^6 cells/ml. 800 micro l of the cell suspension were aliquoted into the wells of a 48 well plate. […] Test compounds are dissolved in dimethylsulphoxide (DMSO) at a stock dilution of
# 10^−2M diluted 1 in 100 in TCM and then as above. The plates are incubated for 12 days at 37° C. in a 95% air/5% CO2 humidified incubator. At the end of the culture period the supernatants were removed with the wells and centrifuged (200× g for 10 minutes) to remove any non-adherent cells. There was no toxicity as assessed by trypan blue dye exclusion. The IgE concentration in the supernatants was measured by ELISA.
# [2] = system: Human tonsillar B lymphocytes; test: Inhibition of formation of human IgE in vitro, tonsillar B lymphocytes with IL4 and anti-CD40 (Procedure 4); conditions: 11 days, ELISA, stimulated control 11.7, TCM 1.9
# Description: as §1
# Human tonsillar B lymphocytes were suspended in RPMI 1640 medium containing 10% foetal calf serum, 2 mM glutamine, 50 micro M 2-mercaptoethanol and 50 micro g/ml gentamycin (TCM) at a concentration of 1.25×10^6 cells/ml. 800 micro l of the cell suspension were aliquoted into the wells of a 48 well plate. 100 micro l of TCM or IL4 at 100 ng/ml and antibody to CD40 at 10 microg/ml was added in quadriplicate to the appropriate wells, followed by 100 micro l of TCM or 10× the final concentration of compound under investigation. Test compounds are dissolved in DMSO at a stock dilution of 10^−2M diluted 1 in 100 in TCM and then as above. The plates are incubated for 11 days at 37° C. in a 95% air/5% CO2 humidified incubator. At the end of the culture period the supernatents were removed from the wells and centrifuged (200× g for 10 minutes) to remove any non-adherent cells. There was no toxicity as assessed by trypan dye exclusion. The IgE concentration in the supernatants was measured by ELISA.
structure (smiles),measurement,setting,value
"CNC(=O)[C@@H](Cc1ccccc1)NC(=O)[C@H](CC(C)C)[C@H](CSc1cccs1)C(=O)N[O-].[Na+] [P1, [4-(N-Hydroxyamino)-2-(R)-isobutyl-3-(S)-(2-thiophenethiomethyl)succinyl]-(S)-phenylalanine-N-methylamide, Sodium Salt]",IC50,soluble CD23,0.05 µM
same,IgE ng/ml (mean +/− sem),[1]; IL4 (5 ng/ml) with compound at 10^−5 M,3.2 ± 1.9 ng/mL
same,IgE ng/ml (mean +/− sem),[1]; IL4 (5 ng/ml) with compound at 10^−6 M,21.3 ± 16.5 ng/mL
same,IgE ng/ml (mean +/− sem),[1]; IL4 (5 ng/ml) with compound at 10^−7 M,68.8 ± 21.8 ng/mL
same,IgE ng/ml (mean +/− sem),[2]; IL4 (10 ng/ml) and anti CD40 (1 micro g/ml) with compound at 10^−5 M,2.9 ± 0.2 ng/mL
same,IgE ng/ml (mean +/− sem),[2]; IL4 (10 ng/ml) and anti CD40 (1 micro g/ml) with compound at 10^−6 M,4.3 ± 0.6 ng/mL
same,IgE ng/ml (mean +/− sem),[2]; IL4 (10 ng/ml) and anti CD40 (1 micro g/ml) with compound at 10^−7 M,6.2 ± 0.5 ng/mL
"CNC(=O)[C@@H](Cc1ccc(OC)cc1)NC(=O)C(CC(=O)NO)CC(C)C (stereo partly drawn) [P3, N-[3-(N′-Hydroxycarboxamido)-2-(2-methylpropyl)-propanoyl]-(S)-O-methyl-L-tyrosine-N-methylamide]",IC50,soluble CD23,3.35 µM
"CNC(=O)[C@H](Cc1c[nH]c2ccccc12)NC(=O)[C@H](CC(C)C)[C@@H](S)CC(=O)OC [P4, Methyl 3-(S)-mercapto-6-methyl-4-(S)-[[[1(S)-[(methylamino)carbonyl]-2-(3-indolyl)ethyl]amino]carbonyl]heptanoate]",IC50,soluble CD23,2.2 µM
"CNC(=O)[C@H](Cc1c[nH]c2ccccc12)NC(=O)[C@H](CC(C)C)[C@@H](S)CC(=O)OC(C)C [P5, Isopropyl 3-(S)-mercapto-6-methyl-4-(S)-[[[1(S)-[(methylamino)carbonyl]-2-(3-indolyl)ethyl]amino]carbonyl]heptanoate]",IC50,soluble CD23,60 µM
"CNC(=O)[C@H](Cc1ccc(OC)cc1)NC(=O)[C@H](CC(C)C)[C@@H](S)CC(N)=O [P6, 3-(S)-Mercapto-N^1-[1-(S)-[(methylamino)carbonyl]-2-(4-methoxyphenyl)ethyl]-2-(S)-(2-methylpropyl)pentanediamide]",IC50,soluble CD23,60 µM
"CC[C@@H](N[C@@H](CC(C)C)C(=O)N[C@@H](Cc1ccc(OC)cc1)C(=O)NC)P(=O)(O)O [P7, N-[N-((S)-1-Phosphonopropyl)-(S)-leucyl]-O-methyl-(S)-tyrosine N-methylamide]",IC50,soluble CD23,30 µM
